# Marks after values point to notes of the source that are not given here.
# How the values were obtained:
# plasma hemostasis = experiment: Thrombin time after intravenous administration; assay type: in vivo, rabbit
# Protocol: The investigations were performed on 72 rabbits of the “Chinchilla” breed with a mass of 2.5±0.3 kg, who were administered which solutions of compounds 2, 15, 21, 37 in doses of 15, 30 and 60 mg/kg intravenously. The experiments included the thrombin-test (series No. 7300) and the coagulability-test (series No. 5000) purchased from the scientific-and-production association (SPA) “Renam”, thromboplastin (series No. 240600) and calcium chloride purchased from the SPA “MedioLab”
# The static parameters of the blood and plasma coagulation (partial activated thromboplastin time, thrombin time, maximum coagulation activity (test for auto coagulation) were determined using the Behnk Electronic coagulometer (Germany). The operating principle of this instrument is based on the fact that the formed blood clot breaks the contacts of the pulse counter in the flask-pin circuit, said pin permanently oscillating in a vertical plane. The moment of formation of the clot is registered by stopping the stop watch hand.
# The measurements were effected at a constant temperature of 37° C. maintained by a temperature control unit.
# The “thrombin time” characterizes the rate of transformation of fibrinogen into fibrin. It was determined by measuring the coagulation time of plasma deprived of thrombocytes under the effect of thrombin standardized by the control plasma.
# 0.2 ml of a thrombin solution was added to 0.2 ml of the test blood plasma of experimental animals, from whom the blood was taken 15, 30, 60 and 120 minutes after the intravenous administration of compounds 2, 15, 21, 37 according to the invention in doses of 15, 30, 60 mg/kg incubated for 1 minute at a temperature of 37° C. and the time of formation of clot T2 in seconds in a coagulometer of the Behnk Electronic Company (Germany).
# thymus = experiment: Morphine abstinence model: thymus condition; assay type: in vivo, rats; conditions: morphinized rats then compound
# Protocol: The effect of the compounds according to the invention on the condition of the thymus of the rats was also investigated: a control group, an experimental group of morphinized animals and an experimental group of animals were first morphinized and then injected with the compounds according to the invention. The experiment was carried out similarly to that described above.
# [1] = system: indicator enzymes in blood plasma; experiment: Morphine abstinence model: indicator enzymes AST, ALT, γ-GTP in blood plasma; assay type: in vivo, rats Wistar; conditions: for ALT, Ci, mE/l, Control + compound / AST, Ci, mE/l, Control + compound / γ-GTP, Ci, mE/l, Control + compound: compound alone 20.0 mg/kg intramuscularly; for ALT, Ci, mE/l, control + Morphine + Compound / AST, Ci, mE/l, control + Morphine + Compound / γ-GTP, Ci, mE/l, control + Morphine + Compound: morphinized rats then compound 20.0 mg/kg intramuscularly
# Protocol: (§1) The experiments were carried out on rats in series of 7 animals on each compound according to the invention. Non-morphinized animal with not administered with compounds according to the invention were used as a control group. […] Then the rats were decapitated, the blood from somnolent arteries was collected in test tubes with solution EDTA as an anticoagulant, centrifuged at 1500 g for 15 minutes at 4° C.
# To estimate possible hepatoprotective action of the compounds according to the invention under conditions of development of an oxidizing stress in the liver cells, effect of these compounds on the most important biochemical blood indexes, in particular, on the content in blood plasma of indicator enzyme of aspartateaminotransferase (AST), alanineaminotransferase (ALT), γ-glutamiletranspeptidase (γ-GTP) was investigated. The content of enzymes was estimated by their catalyzing activity in blood plasma.
# The activity of AST, ALT and γ-GTP was determined by means of diagnostic sets DiaSys, Germany.
# [2] = system: metabolism of nitrogen oxide; experiment: Morphine abstinence model: nitrites and nitrates NOX− in blood plasma, liver and brain; assay type: in vivo, rats Wistar; conditions: for Nitrites in blood plasma, Control + Compound / Nitrites in brain, Cortex of cerebrum, Control + Compound / Nitrites in brain, Hypothalamus, Control + Compound / Nitrites in brain, Mesencephalon, Control + Compound / Nitrites in liver, Control + Compound: compound alone 20.0 mg/kg intramuscularly; for Nitrites in blood plasma, Control + Morphine + compound / Nitrites in brain, Cortex of cerebrum, Control + Morphine + compound / Nitrites in brain, Hypothalamus, Control + Morphine + compound / Nitrites in brain, Mesencephalon, Control + Morphine + compound / Nitrites in liver, Control + Morphine + compound: morphinized rats then compound 20.0 mg/kg intramuscularly
# Protocol: as §1
# To estimate the intensity of metabolism of nitrogen oxide in rats, quantitative determination of stable metabolites of nitrogen oxide—nitrites and nitrates NOX^− in the blood plasma, supernatanates of the liver and thymus gland, a study was conducted by a spectrometric method, and in the brain supernatanates by a […] method.
# The spectrometric method is based the reaction of nitrites with the Griss reagent (a mixture of 2% solution of sulfanilamide and 0.2% N-(1-naphthyl)ethylene diamine. At the first step the nitrite reacts with sulfanilamide with formation of diazonium salt, and then with the second component to form azo dye with an adsorption maximum at 540 nm. For reduction of nitrates into nitrites, a fermentative method was used with bacterial reductase nitrate (Grisham M. B. et al., 1995). The samples of plasma and supernatant of the liver deproteinizated at 100° C. for 5 minutes incubated for 30 minutes at 37° C. in 50.0 mM of HEPES pH 7.4 in the presence of 0.2 unit/ml of Aspergillus reductase nitrate, 5.0 mkM of FAD and 0.1 mM of NAD-Ph. At the end of the reaction lactate dehydrogenase and pyruvate were added for isolation of NAD-Ph interfering with the Griss reaction. Then the Griss reagent was added and after 10-minute incubation the light absorption of the samples was measured at 540 nm. To amount of NOX^− was calculated using sodium nitrate as a standard.
# The fluorometric method is based on calculation of the nitrite level by the intensity fluorescence of 2,3-diaminonaphthotriazole, a product of reaction of 2,3-diaminonaphthalene (DAN) and nitrite in an acidic medium (Misko T. R., Schilling R. J., Salvemini D. et al. “A fluorometric assay for the measurement of nitrite of biological samples”. Anal. Biochem., 1993, v. 214, p. 11-16). The brain supernatants deproteinizated at 100° C. were placed in a nitrite regenerating system containing 0.125 unit/ml of nitrate reductases, 25 mkM NADPh and 25 mkM FAD prepared in a 20-mM Tris-HCl buffer with pH 7.6 and incubated for 30 minutes at 37° C. The lactatedehydrogenase/pyruvate system was used for oxidation of the NADPh. Then 316 mkM of the DAN solution in 0.62 M of hydrochloric acids were added and the mixture was incubated for 10 minutes in darkness.
# 280 mM of NaOH were added for stabilization of the fluorescence of the formed 2,3-diaminonaphthotriazole. The fluorescence intensity was measured in the spectrofluorimeter Hitachi F-3000 at a wavelength of excitation of 365 nm and an emission of 405 nm. The concentration of NOX^− in the brain was calculated by means of a standard solution of sodium nitrate.
SMILES,"T2, s After 120 minutes (thrombin time) (plasma hemostasis; dose 15.0 mg/kg intravenously)","T2, s after 15 minutes (thrombin time) (plasma hemostasis; dose 15.0 mg/kg intravenously)","T2, s after 30 minutes (thrombin time) (plasma hemostasis; dose 15.0 mg/kg intravenously)","T2, s after 60 minutes (thrombin time) (plasma hemostasis; dose 15.0 mg/kg intravenously)","T2, s After 120 minutes (thrombin time) (plasma hemostasis; dose 30.0 mg/kg intravenously)","T2, s after 15 minutes (thrombin time) (plasma hemostasis; dose 30.0 mg/kg intravenously)","T2, s after 30 minutes (thrombin time) (plasma hemostasis; dose 30.0 mg/kg intravenously)","T2, s after 60 minutes (thrombin time) (plasma hemostasis; dose 30.0 mg/kg intravenously)","T2, s After 120 minutes (thrombin time) (plasma hemostasis; dose 60.0 mg/kg intravenously)","T2, s after 15 minutes (thrombin time) (plasma hemostasis; dose 60.0 mg/kg intravenously)","T2, s after 30 minutes (thrombin time) (plasma hemostasis; dose 60.0 mg/kg intravenously)","T2, s after 60 minutes (thrombin time) (plasma hemostasis; dose 60.0 mg/kg intravenously)","Nitrites, thymus Supernatant, Administration of morphine and compound (thymus)","Thymus mass, Administration of morphine and compound (thymus) [mg]","ALT, Ci, mE/l, Control + compound [1] [mE/l]","AST, Ci, mE/l, Control + compound [1] [mE/l]","γ-GTP, Ci, mE/l, Control + compound [1] [mE/l]","ALT, Ci, mE/l, control + Morphine + Compound [1] [mE/l]","AST, Ci, mE/l, control + Morphine + Compound [1] [mE/l]","γ-GTP, Ci, mE/l, control + Morphine + Compound [1] [mE/l]",further results
"Nc1ccnc2c(=O)n([C@@H]3O[C@H](CO)[C@@H](O)[C@H]3O)[nH]c(=O)c12 [Compound 2, 4-amino-7-(β-D-ribofuranosile)pyrido[2,3-d]-6H-pyridazine-5,8-dione]",15.3* s,16.2* s,17.0* s,16.0* s,15.3* s,17.8* s,18.4* s,19.2* s,15.3* s,16.0* s,16.9* s,15.9* s,,,,,,,,,
"Nc1cccc2c(=O)[nH][nH]c(=O)c12.[Na] [Compound 15, sodium salt of 5-amino-benzo[d]-3H-pyridazine-1,4-dione]",15.5* s,17.0* s,18.5* s,16.5* s,15.0* s,19.7* s,20.5* s,21.3* s,14.7* s,16.8* s,18.0* s,16.5* s,0.383 ± 0.02 nmol/mg of protein,214 ± 12,113.48 ± 2.39,173.46 ± 5.63,7.03 ± 2.82,121.08 ± 5.04,195.57 ± 18.68,10.69 ± 1.84,"Nitrites in blood plasma, Control + Compound [2]: 14.39 ± 0.84 mkmol/ml; Nitrites in brain, Cortex of cerebrum, Control + Compound [2]: 4.31 ± 0.37 nmol/mg of protein; Nitrites in brain, Hypothalamus, Control + Compound [2]: 6.77 ± 0.83 nmol/mg of protein; Nitrites in brain, Mesencephalon, Control + Compound [2]: 6.65 ± 0.70 nmol/mg of protein; Nitrites in liver, Control + Compound [2]: 0.259 ± 0.019 nmol/mg of protein; Nitrites in blood plasma, Control + Morphine + compound [2]: 13.91 ± 1.91 mkmol/ml; Nitrites in brain, Cortex of cerebrum, Control + Morphine + compound [2]: 4.72 ± 0.37 nmol/mg of protein; Nitrites in brain, Hypothalamus, Control + Morphine + compound [2]: 6.57 ± 0.88 nmol/mg of protein; Nitrites in brain, Mesencephalon, Control + Morphine + compound [2]: 5.50 ± 0.43 nmol/mg of protein; Nitrites in liver, Control + Morphine + compound [2]: 0.285 ± 0.02 nmol/mg of protein"
"Nc1cnc2c(=O)n([C@@H]3O[C@H](CO)[C@@H](O)[C@H]3O)[nH]c(=O)c2n1.[Na] [Compound 21, sodium salt of 3-amino-7-(β-D-ribofuranosile)pyrazine[2,3-d]-6H-pyridazine-5,8-dione]",15.7* s,16.4* s,17.7* s,16.1* s,15.6* s,17.9* s,18.8* s,19.0* s,15.7* s,16.2* s,17.7* s,16.3* s,,,,,,,,,
"O=c1[nH][nH]c(=O)c2nccnc12.[Li] [Compound 25, lithium salt of pyrazine[2,3-d]-6H-pyridazine-5,8-dione]",,,,,,,,,,,,,0.396 ± 0.02 nmol/mg of protein,218 ± 17,115.27 ± 1.09,177.34 ± 6.13,7.57 ± 1.93,121.96 ± 3.4,196.46 ± 15.34,11.37 ± 1.54,"Nitrites in blood plasma, Control + Compound [2]: 17.10 ± 2.05 mkmol/ml; Nitrites in brain, Cortex of cerebrum, Control + Compound [2]: 4.47 ± 0.43 nmol/mg of protein; Nitrites in brain, Hypothalamus, Control + Compound [2]: 6.87 ± 0.80 nmol/mg of protein; Nitrites in brain, Mesencephalon, Control + Compound [2]: 6.98 ± 1.02 nmol/mg of protein; Nitrites in liver, Control + Compound [2]: 0.307 ± 0.012 nmol/mg of protein; Nitrites in blood plasma, Control + Morphine + compound [2]: 16.78 ± 2.11 mkmol/ml; Nitrites in brain, Cortex of cerebrum, Control + Morphine + compound [2]: 4.91 ± 0.32 nmol/mg of protein; Nitrites in brain, Hypothalamus, Control + Morphine + compound [2]: 6.67 ± 0.79 nmol/mg of protein; Nitrites in brain, Mesencephalon, Control + Morphine + compound [2]: 5.91 ± 0.74 nmol/mg of protein; Nitrites in liver, Control + Morphine + compound [2]: 0.287 ± 0.01 nmol/mg of protein"

# From patent US20070166547A1, “Use of a layer consisting of hydrophobic linear, or two-dimensional polycyclic aromatics as a barrier layer or an encapsulation and electric components constructed with a layer of this type and comprising organic polymers” (priority 2003, published 2007)
